Results reported in patent publication US20120316078A1, “METHODS AND MATERIALS FOR PRODUCING POLYPEPTIDES IN VITRO” (priority 2011, published 2012).

What follows are sequences tested against GFP (Aequorea victoria, UniProt P42212). Conditions: array of randomly generated peptides; GFP binding assay.
Excerpt: Peptide aptamers also can be selected using a peptide array containing randomly generated peptides (e.g., 10,000 randomly generated peptides) that are 10 to 35 amino acids (e.g., 15 to 25 or 20 amino acids) in length. The peptide array can be screened using a binding assay with the protein target (e.g., GFP or thioredoxin). For example, when a fluorescent protein such as GFP is the target, GFP-binding peptides can be directly identified through a fluorescent scanner after a GFP binding assay.

Sequence | binding to GFP on peptide array (strong fluorescence spots)
CSGWNHVIYEGTRYNWFRDS [SEQ ID NO:3] | bind specifically to the GFP
CSGFRAMWLYRNWESQVEAT [SEQ ID NO:2] | bind specifically to the GFP
CSGPYGTHFMYKSGGWRAIY [SEQ ID NO:4] | bind specifically to the GFP
